Data reported in ChEMBL document CHEMBL1201862, “PubChem BioAssay data set” (2004).
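Interpolation was linear, between the two tested concentrations surrounding the appropriate level; five concentrations were tested over 48 hours in 96-well plates. The concentration for 50% growth inhibition is given as GI50.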 Calls of active or inactive are those of the source. No stated cut-off is given here; in the data, active = GI50 up to about 1.1 µM and inactive = higher.

Experiments:
Assay in all cases: NCI-60 cell line screen, 48 h
SN12C = tested on: SN12C
CCRF-CEM = tested on: CCRF-CEM
SK-MEL-28 = tested on: SK-MEL-28
MOLT-4 = tested on: MOLT-4
MDA-MB-231 = tested on: MDA-MB-231
HOP-62 = tested on: HOP-62
T47D = tested on: T47D
NCI-H23 = tested on: NCI-H23
SR = tested on: SR
HL-60 = tested on: HL-60
OVCAR-5 = tested on: OVCAR-5
OVCAR-4 = tested on: OVCAR-4
TK-10 = tested on: TK-10
DU-145 = tested on: DU-145
IGROV-1 = tested on: IGROV-1
PC-3 = tested on: PC-3
UO-31 = tested on: UO-31
MDA-MB-435 = tested on: MDA-MB-435
NCI-H226 = tested on: NCI-H226
SF-539 = tested on: SF-539

Measured: GI50

COc1cc([N+](=O)[O-])cc2c1NC(=O)C2(C)SC (centres undefined)
inactive: SN12C 58.3 µM | CCRF-CEM 40.9 µM | SK-MEL-28 > 100 µM | MOLT-4 31.6 µM | MDA-MB-231 > 100 µM | HOP-62 > 100 µM | T47D 66.8 µM | NCI-H23 > 100 µM | SR 68.2 µM | HL-60 18.3 µM | OVCAR-5 > 100 µM | OVCAR-4 90.2 µM | TK-10 > 100 µM | DU-145 > 100 µM | IGROV-1 > 100 µM | PC-3 > 100 µM | UO-31 > 100 µM | MDA-MB-435 53.1 µM | NCI-H226 > 100 µM

NC(CC(O)(c1ccccc1)c1ccccc1)c1ccccc1S (centres undefined)
inactive: SN12C 18.8 µM | CCRF-CEM 13 µM | SK-MEL-28 17.5 µM | MOLT-4 21.4 µM | MDA-MB-231 17.1 µM | HOP-62 15.7 µM | T47D 16.8 µM | NCI-H23 18.5 µM | SR 23.6 µM | HL-60 15 µM | OVCAR-5 15.9 µM | OVCAR-4 15.9 µM | TK-10 15.7 µM | DU-145 > 10 µM | IGROV-1 > 10 µM | PC-3 11.4 µM | UO-31 11.4 µM | MDA-MB-435 14.8 µM | NCI-H226 15 µM

Cc1c(C)c(C)c(-n2c(=O)n(C)c(=O)n2-n2c(=O)n(C)c(=O)n2-c2c(C)c(C)c(C)c(C)c2C)c(C)c1C
inactive: SN12C > 100 µM | SK-MEL-28 > 100 µM | MOLT-4 40 µM | MDA-MB-231 > 100 µM | T47D > 100 µM | SR 20.5 µM | HL-60 12.1 µM | OVCAR-5 > 100 µM | OVCAR-4 > 100 µM | TK-10 > 100 µM | SF-539 > 100 µM | DU-145 > 100 µM | IGROV-1 51.5 µM | PC-3 > 100 µM | UO-31 > 100 µM | MDA-MB-435 > 100 µM | NCI-H226 37.8 µM

Cc1nc2ccc(F)cc2c(Cl)c1CCCl
inactive: CCRF-CEM 18.6 µM | SK-MEL-28 40.3 µM | MOLT-4 21.3 µM | MDA-MB-231 27 µM | HOP-62 84.9 µM | T47D 38.6 µM | NCI-H23 42.3 µM | SR 19.9 µM | HL-60 16.1 µM | OVCAR-4 83.8 µM | TK-10 62.8 µM | SF-539 67.3 µM | DU-145 44.8 µM | IGROV-1 59.8 µM | PC-3 44.4 µM | UO-31 73.1 µM | MDA-MB-435 26.9 µM | NCI-H226 54.1 µM

NC1CC(=O)c2c1sc(Cl)c2Cl (centres undefined)
inactive: SN12C > 100 µM | CCRF-CEM > 100 µM | SK-MEL-28 > 100 µM | MOLT-4 > 100 µM | MDA-MB-231 > 100 µM | HOP-62 > 100 µM | T47D > 100 µM | SR > 100 µM | HL-60 > 100 µM | OVCAR-5 > 100 µM | TK-10 > 100 µM | SF-539 > 100 µM | DU-145 > 100 µM | IGROV-1 > 100 µM | PC-3 > 100 µM | UO-31 > 100 µM | MDA-MB-435 > 100 µM

CCN(CC)CCn1c2cc3c(cc2c(=O)c2cccnc21)OCO3
inactive: SN12C 6.4 µM | CCRF-CEM 5.31 µM | SK-MEL-28 7.91 µM | MOLT-4 3.68 µM | MDA-MB-231 4.44 µM | HOP-62 3.61 µM | T47D > 10 µM | NCI-H23 8.75 µM | SR 4.34 µM | HL-60 4.58 µM | OVCAR-5 4.44 µM | OVCAR-4 5.36 µM | TK-10 6.01 µM | SF-539 4.92 µM | DU-145 > 10 µM | IGROV-1 4.88 µM | PC-3 7.43 µM | MDA-MB-435 4.71 µM | NCI-H226 5.01 µM

O=[As](O)(O)c1ccc(/N=N/c2ccc([As](=O)(O)O)cc2)cc1
inactive: SN12C > 100 µM | SK-MEL-28 > 100 µM | MOLT-4 > 100 µM | MDA-MB-231 > 100 µM | HOP-62 > 100 µM | T47D > 100 µM | NCI-H23 > 100 µM | SR > 100 µM | HL-60 > 100 µM | OVCAR-5 > 100 µM | OVCAR-4 > 100 µM | TK-10 > 100 µM | DU-145 > 100 µM | IGROV-1 > 100 µM | PC-3 > 100 µM | UO-31 > 100 µM | MDA-MB-435 > 100 µM | NCI-H226 > 100 µM

CC1(C)C(=O)N(O)C(C)(C)N1N=O
inactive: SN12C > 10 µM | CCRF-CEM > 10 µM | MOLT-4 > 10 µM | MDA-MB-231 > 10 µM | HOP-62 > 10 µM | T47D > 10 µM | NCI-H23 > 10 µM | SR > 10 µM | HL-60 > 10 µM | OVCAR-5 > 10 µM | OVCAR-4 > 10 µM | TK-10 > 10 µM | DU-145 > 10 µM | PC-3 > 10 µM | UO-31 > 10 µM | MDA-MB-435 > 10 µM | NCI-H226 > 10 µM
